Reference: patent US9422321B2, “Pyrimidine nucleoside derivatives, synthesis methods and uses thereof for preparing anti-tumor and anti-virus medicaments” (High & New Technology Research Center, Henan Academy of …, priority 2010, dated 2016)

Tests used:
VSVG/HIV-luc (NL4-3) = experiment: microbe, parasite or virus in culture; assay type: cell-based, HIV-1; conditions: Human immunodeficiency virus 1, NL43, HEK-293T; for inhibition at 10 µM: read-out: Inhibitory activity at 10 μM; for EC50: 48 h, read-out: EC50 (μM) VSVG/HIV-luc (NL4-3)
[1] = MTS test of effects of the compound on cell survival; assay type: cell-based; conditions: human, 293T cells
Protocol: Then, 20 μL freshly prepared mixture of MTS/PMS was added to each well and after 4 h incubation in the incubator at 37° C. with 5% CO2, the color was developed. The light absorption (OD) of each well at wavelengths 490 nm and 650 nm (background) was detected on an enzyme linked immuno analyzer, and the survival rate of cells was calculated.

HBsAg = experiment: In vitro inhibition of HBV: HBsAg in HepG2.2.15 cells by ELISA; assay type: cell-based; conditions: Hepatitis B virus, HepG2.2.15, read-out: IC50 (μM) (HBsAg)
Protocol: (§1) A tube of frozen HepG2.2.15 cells taken from a liquid nitrogen tank was quickly placed into a water bath at 42° C. and shaken to thaw. DMEM complete medium (fetal bovine serum 10%, G418 380 μg/mL, Penicillin 100 U/ml, Streptomycin 100 U/ml) was used for cell culturing at conditions of 37° C. and 5% CO2. The number of cell passage in normal growing cells was once per 2-3 days.
(§2) The effect of a compound on HBV surface antigen s and antigen e in the cell culture was detected using a screening concentration lower than the half toxic concentration of the compound. HepG2.2.15 cells in logarithmic growth phase were selected and digested with trypsin into single cell suspension, and were seeded to a 24-well plate at a concentration of 2×10^4/mL, 1 mL per well. Media of different medicament concentrations were added, three wells for each concentration, and cells added with complete medium were set as normal control. Cell supernatants and cells at day 3, day 6 and day 9 were collected and kept under −20° C. The intracellular and extracellular expressions of e antigen and surface antigen at day 3, day 6 and day 9 were determined by ELISA.
(§3) 2.4 Effect of the Compound on HBeAg and HBsAg in HepG2.2.15 Cell Supernatant Detected by ELISA
(§4) The instructions of the kit were followed;
(§5) Measurement: OD value of each well was read from microplate reader using dual wavelength 450/630 nm.
(§6) Result determination: The Cutoff value was first calculated according to equation: COV=average OD of negative control×2.1. Then, if a sample had OD≧COV, the result was determined as positive, or if a sample had OD≦COV, the result was determined as negative.

[2] = MTT test of cytotoxicity on HepG2.2.15 cells; assay type: cell-based; conditions: human, read-out: CC50 (μM) (HepG2. 2. 15)
Protocol: as §1
Cytotoxicity of the compound on HepG2.2.15 cells was tested with the MTT colorimetric assay established by Mosmann. After continuous incubation for 72 h, 10 μL MTT was added to each well. Four hours later, the supernatant was discarded and 200 μL DMSO was added to each well. The OD value in each well was read using a microplate reader (measurement wavelength 490 nm, reference wavelength 630 nm). The result was recorded and the percentage inhibition of HepG2.2.15 cells by each compound was calculated:
The half toxic concentration (TC50) of the medicament on cells was calculated according to the percentage inhibition of the cell by the medicament.

HBeAg = experiment: In vitro inhibition of HBV: HBeAg in HepG2.2.15 cells by ELISA; assay type: cell-based; conditions: Hepatitis B virus, HepG2.2.15, read-out: IC50 (μM) (HBeAg)
Protocol: as §1, §2, §3, §4, §5, §6

SMILES | inhibition at 10 µM (VSVG/HIV-luc (NL4-3)) [%] | EC50 (VSVG/HIV-luc (NL4-3)) [µM] | CC50 at 44 h [1] [µM] | IC50 (HBsAg) [µM] | CC50 at 72 h [2] [µM] | IC50 (HBeAg) [µM]
CCNc1ccn([C@@H]2O[C@@](CO)(N=[N+]=[N-])C(O)C2F)c(=O)n1 (stereo partly drawn) [Compound 5-01] | 21.6 ± 1.3 | – | – | – | – | –
[N-]=[N+]=N[C@]1(CO)O[C@@H](n2ccc(NCCc3ccc(O)cc3)nc2=O)C(F)C1O (stereo partly drawn) [Compound 5-03] | – | 5.7 ± 0.2 | ≥ 25 | < 0.1 | 834 | –
CCN(CC)c1ccn([C@@H]2O[C@@](CO)(N=[N+]=[N-])C(O)C2F)c(=O)n1 (stereo partly drawn) [Compound 5-04] | 8.6 ± 7.5 | – | – | – | – | –
[N-]=[N+]=N[C@]1(CO)O[C@@H](n2ccc(N3CCCC3)nc2=O)C(F)C1O (stereo partly drawn) [Compound 5-05] | 31.6 ± 3.6 | – | – | – | – | –
CON(C)c1ccn([C@@H]2O[C@@](CO)(N=[N+]=[N-])C(O)C2F)c(=O)n1 (stereo partly drawn) [Compound 5-06] | 32.2 ± 10.5 | – | – | – | – | –
CONc1ccn([C@@H]2O[C@@](CO)(N=[N+]=[N-])C(O)C2F)c(=O)n1 (stereo partly drawn) [Compound 5-07] | 29.4 ± 5.1 | – | – | < 0.01 | 418 | > 1
CCONc1ccn([C@@H]2O[C@@](CO)(N=[N+]=[N-])C(O)C2F)c(=O)n1 (stereo partly drawn) [Compound 5-08] | 15.6 ± 1.3 | – | – | 0.12 | 572 | > 1
[N-]=[N+]=N[C@]1(CO)O[C@@H](n2ccc(NCc3ccco3)nc2=O)C(F)C1O (stereo partly drawn) [Compound 5-09] | – | 0.7 ± 0.1 | ≥ 25 | 0.19 | ≥ 25 | –
[N-]=[N+]=N[C@]1(CO)O[C@@H](n2ccc(NC3CCCCC3)nc2=O)C(F)C1O (stereo partly drawn) [Compound 5-10] | 1.9 ± 2.2 | – | – | < 0.1 | 654 | –
[N-]=[N+]=N[C@]1(CO)O[C@@H](n2ccc(N3CCOCC3)nc2=O)C(F)C1O (stereo partly drawn) [Compound 5-12] | 3 ± 6.9 | – | – | < 0.1 | 700 | > 1
[N-]=[N+]=N[C@]1(CO)O[C@@H](n2ccc(NCCO)nc2=O)C(F)C1O (stereo partly drawn) [Compound 5-13] | 41.7 ± 1.8 | – | – | – | – | –
[N-]=[N+]=N[C@]1(CO)O[C@@H](n2ccc(NCCCO)nc2=O)C(F)C1O (stereo partly drawn) [Compound 5-14] | 6.3 ± 3.2 | – | – | 2.46 | 668 | –
[N-]=[N+]=N[C@]1(CO)O[C@@H](n2ccc(NCc3ccccc3)nc2=O)C(F)C1O (stereo partly drawn) [Compound 5-16] | 31.3 ± 4 | – | – | – | – | –
[N-]=[N+]=N[C@]1(CO)O[C@@H](n2ccc(NO)nc2=O)C(F)C1O (stereo partly drawn) [Compound 5-17] | – | 0.7 ± 0.2 | ≥ 25 | 0.07 | 951 | 0.11
[N-]=[N+]=N[C@]1(CO)O[C@@H](n2ccc(NCC(O)CO)nc2=O)C(F)C1O (stereo partly drawn) [Compound 5-18] | 17.8 ± 0.6 | – | – | – | – | –
[N-]=[N+]=N[C@]1(CO)O[C@@H](n2ccc(NCCc3c[nH]c4ccccc34)nc2=O)C(F)C1O (stereo partly drawn) [Compound 5-20] | – | 5.8 ± 2.6 | ≥ 25 | – | > 250 | –
CN(C)c1ccn([C@@H]2O[C@@](CO)(N=[N+]=[N-])C(O)C2F)c(=O)n1 (stereo partly drawn) [Compound 5-21] | – | 13 ± 6 | ≥ 25 | – | > 250 | 15.5
[N-]=[N+]=N[C@]1(CO)O[C@@H](n2ccc(NN3CCOCC3)nc2=O)C(F)C1O (stereo partly drawn) [Compound 5-22] | 14.2 ± 5.1 | – | – | – | – | –
COCCCNc1ccn([C@@H]2O[C@@](CO)(N=[N+]=[N-])C(O)C2F)c(=O)n1 (stereo partly drawn) [Compound 5-23] | 10.4 ± 3.5 | – | – | – | – | –
CCCCCNc1ccn([C@@H]2O[C@@](CO)(N=[N+]=[N-])C(O)C2F)c(=O)n1 (stereo partly drawn) [Compound 5-24] | 33.8 ± 1 | – | – | – | – | –
CCCCCCNc1ccn([C@@H]2O[C@@](CO)(N=[N+]=[N-])C(O)C2F)c(=O)n1 (stereo partly drawn) [Compound 5-25] | 35 ± 1.7 | – | – | – | – | –
CCCCCCCNc1ccn([C@@H]2O[C@@](CO)(N=[N+]=[N-])C(O)C2F)c(=O)n1 (stereo partly drawn) [Compound 5-26] | 33.9 ± 0.5 | – | – | – | – | –
CCCCCCCCNc1ccn([C@@H]2O[C@@](CO)(N=[N+]=[N-])C(O)C2F)c(=O)n1 (stereo partly drawn) [Compound 5-27] | 32.3 ± 3.2 | – | – | – | – | –

SMILES | inhibition at 10 µM (VSVG/HIV-luc (NL4-3)) [%] | EC50 (VSVG/HIV-luc (NL4-3)) [µM] | CC50 at 44 h [1] [µM] | IC50 (HBsAg) [µM] | CC50 at 72 h [2] [µM] | IC50 (HBeAg) [µM]
CNc1ccn([C@@H]2O[C@@](CO)(N=[N+]=[N-])C(O)C2F)c(=O)n1 (stereo partly drawn) [Compound 5-28] | – | 6.7 ± 4.7 | ≥ 25 | 6.26 | > 250 | 14.3
[N-]=[N+]=N[C@]1(CO)O[C@@H](n2ccc(N3CCSCC3)nc2=O)C(F)C1O (stereo partly drawn) [Compound 5-29] | 11.6 ± 0.5 | – | – | – | – | –
[N-]=[N+]=N[C@]1(CO)O[C@@H](n2ccc(NNC(N)=O)nc2=O)C(F)C1O (stereo partly drawn) [Compound 5-30] | 38.6 ± 5.7 | – | – | – | – | –
CNNc1ccn([C@@H]2O[C@@](CO)(N=[N+]=[N-])C(O)C2F)c(=O)n1 (stereo partly drawn) [Compound 5-31] | 22.8 ± 3.5 | – | – | – | – | –
[N-]=[N+]=N[C@]1(CO)O[C@@H](n2ccc(NCCCN)nc2=O)C(F)C1O (stereo partly drawn) [Compound 5-32] | 0.9 ± 0.8 | – | – | – | – | –
[N-]=[N+]=N[C@]1(CO)O[C@@H](n2ccc(NCC(O)CN)nc2=O)C(F)C1O (stereo partly drawn) [Compound 5-33] | 14.1 ± 2.2 | – | – | – | – | –
COC(=O)[C@@H]1CCCN1c1ccn([C@@H]2O[C@@](CO)(N=[N+]=[N-])C(O)C2F)c(=O)n1 (stereo partly drawn) [Compound 7L] | 5.1 ± 4.6 | – | – | 0.02 | 596 | –
[N-]=[N+]=N[C@]1(CO)O[C@@H](n2ccc(NCC(N)=O)nc2=O)C(F)C1O (stereo partly drawn) [Compound 7j] | – | 10 ± 7 | ≥ 25 | – | 239 | 6.16
COC(=O)[C@H](Nc1ccn([C@@H]2O[C@@](CO)(N=[N+]=[N-])C(O)C2F)c(=O)n1)C(C)C (stereo partly drawn) [Compound 8f] | – | 4.7 ± 0.1 | ≥ 25 | 0.26 | > 250 | –
COC(=O)[C@H](CCSC)Nc1ccn([C@@H]2O[C@@](CO)(N=[N+]=[N-])C(O)C2F)c(=O)n1 (stereo partly drawn) [Compound 8g] | – | 8.1 ± 5.5 | ≥ 25 | 19.6 | > 250 | –
COC(=O)[C@H](CO)Nc1ccn([C@@H]2O[C@@](CO)(N=[N+]=[N-])C(O)C2F)c(=O)n1 (stereo partly drawn) [Compound 8h] | – | 6.2 ± 0.6 | ≥ 25 | 0.07 | > 250 | –
CC(Nc1ccn([C@@H]2O[C@@](CO)(N=[N+]=[N-])C(O)C2F)c(=O)n1)C(=O)O (stereo partly drawn) [Compound 8m] | – | 0.5 ± 0.3 | ≥ 25 | – | – | –
COC(=O)[C@H](Cc1ccccc1)Nc1ccn([C@@H]2O[C@@](CO)(N=[N+]=[N-])C(O)C2F)c(=O)n1 (stereo partly drawn) [Compound 8n] | – | 5.4 ± 3 | ≥ 25 | – | > 250 | 4.41
[N-]=[N+]=N[C@]1(CO)O[C@@H](n2cc(-c3ccco3)c(=O)[nH]c2=O)C(F)C1O (stereo partly drawn) [Compound 10] | 15.1 ± 0.8 | – | – | – | – | –
[N-]=[N+]=N[C@]1(CO)O[C@@H](n2cc(-c3ccco3)c(N)nc2=O)C(F)C1O (stereo partly drawn) [Compound 12] | 15.8 ± 4.4 | – | – | – | – | –
[N-]=[N+]=N[C@]1(CO)O[C@@H](n2cc(C#CCCO)c(=O)[nH]c2=O)C(F)C1O (stereo partly drawn) [Compound 14] | 10 ± 5.9 | – | – | – | – | –
[N-]=[N+]=N[C@]1(CO)O[C@@H](n2cc(C#CCCO)c(N)nc2=O)C(F)C1O (stereo partly drawn) [Compound 15] | 27 ± 4.7 | – | – | – | – | –
[N-]=[N+]=N[C@]1(CO)O[C@@H](n2cc3cc(CCO)oc3nc2=O)C(F)C1O (stereo partly drawn) [Compound 16] | 9.9 ± 0.8 | – | – | – | – | –
[N-]=[N+]=N[C@]1(CO)O[C@@H](n2cc(C(=O)N3CCOCC3)c(=O)[nH]c2=O)C(F)C1O (stereo partly drawn) [Compound 22] | 0 | – | – | 2.14 | 644 | –
[N-]=[N+]=N[C@]1(CO)O[C@@H](n2cc(C(=O)N3CCCC3)c(=O)[nH]c2=O)C(F)C1O (stereo partly drawn) [Compound 25] | 16.8 ± 1.2 | – | – | – | – | –
[N-]=[N+]=N[C@]1(CO)O[C@@H](n2cc(C(=O)N3CCSCC3)c(=O)[nH]c2=O)C(F)C1O (stereo partly drawn) [Compound 27] | 4.8 ± 1.8 | – | – | < 0.1 | 585 | –
Cc1cn([C@H]2C[C@H](N=[N+]=[N-])[C@@H](CO)O2)c(=O)[nH]c1=O [Zidovudine, reference compound] | – | 0.084 ± 0.0026 | – | – | – | –
